pIC50: −log10 of the molar value.
Assays:
[1] = Inhibition of Wnt/beta-catenin (unknown origin) expressed in human HEK293 cells expressing MSRII transfected with DNA-LF2K incubated for 24 hrs by luciferase reporter gene assay; settings: HEK293, 24 h
[2] = molecular target: T1, Poly [ADP-ribose] polymerase tankyrase-1 (Homo sapiens, UniProt O95271); experiment: Inhibition of human TNKS1 incubated for 1 to 2 hrs by fluorescence polarization assay
T1 sequence (O95271 whole entry): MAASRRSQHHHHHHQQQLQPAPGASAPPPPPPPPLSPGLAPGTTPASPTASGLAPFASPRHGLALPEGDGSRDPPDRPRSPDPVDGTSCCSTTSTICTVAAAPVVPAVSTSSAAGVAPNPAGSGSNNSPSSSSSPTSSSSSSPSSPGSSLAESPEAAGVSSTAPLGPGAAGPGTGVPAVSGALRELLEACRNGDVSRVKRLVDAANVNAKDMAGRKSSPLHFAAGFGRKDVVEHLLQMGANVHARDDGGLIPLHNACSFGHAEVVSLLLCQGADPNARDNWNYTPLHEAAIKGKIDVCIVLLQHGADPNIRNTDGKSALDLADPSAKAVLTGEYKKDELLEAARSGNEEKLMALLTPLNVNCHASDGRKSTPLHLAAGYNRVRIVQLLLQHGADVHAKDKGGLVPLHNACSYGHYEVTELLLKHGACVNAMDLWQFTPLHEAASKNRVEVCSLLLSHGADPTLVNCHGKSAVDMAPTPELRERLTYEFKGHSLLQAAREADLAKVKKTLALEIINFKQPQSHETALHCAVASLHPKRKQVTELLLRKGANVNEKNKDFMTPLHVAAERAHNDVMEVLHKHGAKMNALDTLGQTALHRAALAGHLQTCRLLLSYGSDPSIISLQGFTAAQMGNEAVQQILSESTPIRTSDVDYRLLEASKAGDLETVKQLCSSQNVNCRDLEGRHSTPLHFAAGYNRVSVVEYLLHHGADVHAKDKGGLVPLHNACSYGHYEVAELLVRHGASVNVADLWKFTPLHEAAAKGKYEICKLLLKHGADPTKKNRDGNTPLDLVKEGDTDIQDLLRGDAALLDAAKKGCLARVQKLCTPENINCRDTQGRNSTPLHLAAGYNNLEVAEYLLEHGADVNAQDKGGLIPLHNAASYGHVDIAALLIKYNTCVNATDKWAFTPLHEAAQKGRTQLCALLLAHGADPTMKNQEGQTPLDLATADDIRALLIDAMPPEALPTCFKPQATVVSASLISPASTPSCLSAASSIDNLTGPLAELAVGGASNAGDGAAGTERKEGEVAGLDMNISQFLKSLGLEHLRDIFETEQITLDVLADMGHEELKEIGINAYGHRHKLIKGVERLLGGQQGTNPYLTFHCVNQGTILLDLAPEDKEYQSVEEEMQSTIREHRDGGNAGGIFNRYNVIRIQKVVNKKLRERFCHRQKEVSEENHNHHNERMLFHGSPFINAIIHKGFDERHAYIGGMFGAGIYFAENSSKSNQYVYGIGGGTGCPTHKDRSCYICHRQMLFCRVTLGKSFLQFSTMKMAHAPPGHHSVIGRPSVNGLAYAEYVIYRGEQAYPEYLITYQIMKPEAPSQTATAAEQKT

[3] = Clearance in Sprague-Dawley rat at 0.5 mg/kg, iv; format: ADME, organism-based; settings: in vivo
[4] = Half life in Sprague-Dawley rat at 0.5 mg/kg, iv; format: ADME, organism-based; settings: in vivo
[5] = Volume of distribution in Sprague-Dawley rat at 0.5 mg/kg, iv; format: ADME, organism-based; settings: in vivo
[6] = molecular target: T2, Poly [ADP-ribose] polymerase tankyrase-2 (Homo sapiens, UniProt Q9H2K2); experiment: Inhibition of human TNKS2 incubated for 1 to 2 hrs by fluorescence polarization assay
T2 sequence (Q9H2K2 whole entry): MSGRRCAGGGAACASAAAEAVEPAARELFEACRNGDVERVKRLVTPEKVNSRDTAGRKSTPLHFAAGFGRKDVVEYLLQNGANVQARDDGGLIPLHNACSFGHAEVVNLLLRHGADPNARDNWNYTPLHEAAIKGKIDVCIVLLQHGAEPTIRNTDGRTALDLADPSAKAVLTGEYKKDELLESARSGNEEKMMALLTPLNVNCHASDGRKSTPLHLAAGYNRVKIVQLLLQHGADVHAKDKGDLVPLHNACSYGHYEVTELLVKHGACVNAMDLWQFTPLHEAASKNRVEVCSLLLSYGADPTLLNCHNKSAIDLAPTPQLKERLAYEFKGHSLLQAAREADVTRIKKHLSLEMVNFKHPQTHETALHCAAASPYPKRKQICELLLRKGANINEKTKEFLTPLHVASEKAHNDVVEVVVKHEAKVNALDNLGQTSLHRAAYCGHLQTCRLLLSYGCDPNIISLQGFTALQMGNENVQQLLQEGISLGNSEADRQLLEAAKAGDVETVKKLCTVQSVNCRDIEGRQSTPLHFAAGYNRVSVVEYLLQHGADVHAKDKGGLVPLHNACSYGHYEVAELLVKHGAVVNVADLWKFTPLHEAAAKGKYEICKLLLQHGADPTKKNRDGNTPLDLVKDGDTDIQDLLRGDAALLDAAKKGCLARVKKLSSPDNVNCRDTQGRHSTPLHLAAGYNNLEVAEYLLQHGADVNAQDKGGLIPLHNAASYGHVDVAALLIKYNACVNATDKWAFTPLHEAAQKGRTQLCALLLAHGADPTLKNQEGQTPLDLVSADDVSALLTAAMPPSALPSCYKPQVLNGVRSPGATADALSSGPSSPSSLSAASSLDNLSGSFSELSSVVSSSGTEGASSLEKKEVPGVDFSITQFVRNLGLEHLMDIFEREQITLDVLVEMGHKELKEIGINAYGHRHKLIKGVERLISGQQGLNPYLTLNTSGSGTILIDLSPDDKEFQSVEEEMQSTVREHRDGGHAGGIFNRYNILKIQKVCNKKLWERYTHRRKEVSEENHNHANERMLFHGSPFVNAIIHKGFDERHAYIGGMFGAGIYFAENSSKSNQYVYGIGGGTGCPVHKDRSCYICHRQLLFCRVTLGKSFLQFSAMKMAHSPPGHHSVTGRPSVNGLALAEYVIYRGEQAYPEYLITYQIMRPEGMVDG

[7] = Half life in Sprague-Dawley rat at 5 mg/kg, po or 2 mg/kg, iv; format: ADME, organism-based; settings: in vivo
[8] = Clearance in Sprague-Dawley rat at 5 mg/kg, po or 2 mg/kg, iv; format: ADME, organism-based; settings: in vivo
[9] = Dose normalised AUC in Sprague-Dawley rat at 5 mg/kg, po; format: ADME, organism-based; settings: in vivo
[10] = Volume of distribution in Sprague-Dawley rat at 5 mg/kg, po or 2 mg/kg, iv; format: ADME, organism-based; settings: in vivo
[11] = Oral bioavailability in Sprague-Dawley rat at 5 mg/kg; format: ADME, organism-based; settings: in vivo
[12] = Dose normalised AUC in Sprague-Dawley rat at 10 mg/kg, po; format: ADME, organism-based; settings: in vivo
[13] = Half life in Sprague-Dawley rat at 10 mg/kg, po or 0.5 mg/kg, iv; format: ADME, organism-based; settings: in vivo
[14] = Oral bioavailability in Sprague-Dawley rat at 10 mg/kg; format: ADME, organism-based; settings: in vivo
[15] = Clearance in Sprague-Dawley rat at 10 mg/kg, po or 0.5 mg/kg, iv; format: ADME, organism-based; settings: in vivo
[16] = Volume of distribution in Sprague-Dawley rat at 10 mg/kg, po or 0.5 mg/kg, iv; format: ADME, organism-based; settings: in vivo

Row | Structure (SMILES) | pIC50 [1] | pIC50 [2] | further results
1 | Cc1cccc2c1c(=O)n(C[C@H]1CC[C@H](C(=O)Nc3ccncc3)CC1)c(=O)n2Cc1ccccc1C#N | 8.00 | 8.49 | 
2 | Cc1ccc(NC(=O)[C@H]2CC[C@H](Cn3c(=O)c4c(C)cccc4n(Cc4cccc(C(F)(F)F)c4C#N)c3=O)CC2)cn1 | 7.80 | 8.40 | 
3 | Cc1ccc2c(c1C)c(=O)n(C[C@H]1CC[C@H](C(=O)Nc3ccncc3)CC1)c(=O)n2Cc1cccc(C(F)(F)F)c1C#N | 7.60 | 8.20 | 
4 | N#Cc1c(Cn2c(=O)n(C[C@H]3CC[C@H](C(=O)Nc4ccncc4)CC3)c(=O)c3c(Cl)cccc32)cccc1C(F)(F)F | 8.20 | 8.49 | 
5 | COc1cccc2c1c(=O)n(C[C@H]1CC[C@H](C(=O)Nc3ccncc3)CC1)c(=O)n2Cc1cccc(C(F)(F)F)c1C#N | 7.90 | 8.40 | 
6 | Cc1cccc2c1c(=O)n(C[C@H]1CC[C@H](C(=O)Nc3ccncc3)CC1)c(=O)n2Cc1cccc(Cl)c1C#N | 8.20 | 8.70 | clearance [3]: 45.9 mL/min/kg; half-life [4]: 37.2 min; Vd [5]: 2.1 L/kg
7 | Cc1cccc2c1c(=O)n(C[C@H]1CC[C@H](C(=O)Nc3ccncc3)CC1)c(=O)n2Cc1cccc(C(F)(F)F)c1C#N | 7.40 | 8.49 | 
8 | N#Cc1c(Cn2c(=O)n(C[C@H]3CC[C@H](C(=O)Nc4ccncc4)CC3)c(=O)c3c(F)cccc32)cccc1C(F)(F)F | 7.80 | 8.40 | 
9 | N#Cc1ccccc1Cn1c(=O)n(C[C@H]2CC[C@H](C(=O)Nc3ccncc3)CC2)c(=O)c2nc[nH]c21 | 6.60 | 7.00 | 
10 | Cc1ccc2c(c1C)c(=O)n(C[C@H]1CC[C@H](C(=O)O)CC1)c(=O)n2Cc1cccc(C(F)(F)F)c1C#N | 6.60 | 7.80 | 
11 | Cc1cccc2c1c(=O)n(C[C@H]1CC[C@H](C(=O)Nc3ccnnc3)CC1)c(=O)n2Cc1cccc(C(F)(F)F)c1C#N | 7.50 | 8.60 | 
12 | Cc1c(C(N)=O)ccc2c1c(=O)n(C[C@H]1CC[C@H](C(=O)Nc3ccncc3)CC1)c(=O)n2Cc1cccc(C(F)(F)F)c1C#N | 7.20 | 7.60 | 
13 | N#Cc1ccccc1Cn1c(=O)n(C[C@H]2CC[C@H](C(=O)Nc3ccncc3)CC2)c(=O)c2ccncc21 | 7.60 | 7.20 | 
14 | N#Cc1c(Cn2c(=O)n(C[C@H]3CC[C@H](C(=O)O)CC3)c(=O)c3c(Cl)cccc32)cccc1C(F)(F)F | 7.20 | 7.80 | 
15 | Cc1cccc(Cn2c(=O)n(C[C@H]3CC[C@H](C(=O)Nc4ccncc4)CC3)c(=O)c3c(C)cccc32)c1C#N | 7.50 | 8.70 | 
16 | N#Cc1ccccc1Cn1c(=O)n(C[C@H]2CC[C@H](C(=O)NCc3ccccc3)CC2)c(=O)c2ccccc21 | < 5.30 | 6.20 | pIC50 [6]: 5.10
17 | Cc1c(F)ccc2c1c(=O)n(C[C@H]1CC[C@H](C(=O)O)CC1)c(=O)n2Cc1cccc(C(F)(F)F)c1C#N | 7.70 |  | 
18 | COc1cccc2c1c(=O)n(C[C@H]1CC[C@H](C(=O)O)CC1)c(=O)n2Cc1cccc(C(F)(F)F)c1C#N | 7.70 | 8.09 | 
19 | N#Cc1c(Cn2c(=O)n(C[C@H]3CC[C@H](C(=O)Nc4ccncc4)CC3)c(=O)c3ccccc32)cccc1C(F)(F)F | 7.90 | 8.70 | 
20 | N#Cc1c(Cn2c(=O)n(C[C@H]3CC[C@H](C(=O)O)CC3)c(=O)c3ccccc32)cccc1C(F)(F)F | 7.20 |  | half-life [7]: 312 min; clearance [8]: 1.88 mL/min/kg; AUC/dose [9]: 1293 ng·h/mL; Vd [10]: 0.81 L/kg; bioavailability [11]: 14.5%
21 | Cc1c(F)ccc2c1c(=O)n(C[C@H]1CC[C@H](C(=O)Nc3ccncc3)CC1)c(=O)n2Cc1cccc(C(F)(F)F)c1C#N | 7.80 | 8.49 | 
22 | N#Cc1ccccc1Cn1c(=O)n(C[C@H]2CC[C@H](C(=O)Nc3ccncc3)CC2)c(=O)c2ccccc21 | 8.20 | 8.40 | AUC/dose [12]: 37.7 ng·h/mL; half-life [13]: 43.2 min; bioavailability [14]: 3.6%; clearance [15]: 91.2 mL/min/kg; Vd [16]: 4.42 L/kg
23 | N#Cc1ccccc1Cn1c(=O)n(C[C@H]2CC[C@H](C(=O)Nc3ccncc3)CC2)c(=O)c2ncccc21 | 7.10 | 6.90 | 
24 | Cc1cccc2c1c(=O)n(C[C@H]1CC[C@H](C(=O)Nc3cnn(C)c3)CC1)c(=O)n2Cc1cccc(C(F)(F)F)c1C#N | 8.00 | 8.60 | 
25 | N#Cc1c(Cn2c(=O)n(C[C@H]3CC[C@H](C(=O)O)CC3)c(=O)c3c(F)cccc32)cccc1C(F)(F)F | 7.20 | 7.40 | 
